One experiment concerns H9 lymphocytes. Briefly: Membrane sphingomyelin levels in [3H]palmitic acid-labeled H9 lymphocytes. The experiment is classed as cell-based. Particulars: H9 cells, 24 hours incubation (FIG. 1). The method, then: Methods: Membrane sphingomyelin is metabolically labeled in H9 lymphocytes by incubating the cells with [^3H] palmitic acid in supplemented RPMI media for 48 h. Labeled media is removed and cells are incubated in the presence or absence of various concentrations of the sigma-2 receptor agonists CB-184 or haldol (haloperidol) for 24 hours. Total lipids are extracted and the dried organic layer is chromatographed on Silica G-60 plates. Sphingomyelin spots are scraped and quantified by liquid scintillation counting.

For a further experiment, the system named is HIV. The experiment can be described thus: HIV infectivity assay, luciferase activity in CEMX174 cells with SIV LTR-driven luciferase gene. Particulars: for inhibition of HIV infection (in words): lymphocytes incubated 24 hours with drug, washed, exposed to HIV for 24 hours, luciferase activity (FIG. 2). Format: cell-based. As for the experimental part: CEMX174 cells transfected with a luciferase gene driven by the Simian Immunodeficiency Virus (SIV) LTR are used in infectivity assays. Cells are then treated with sigma-2 receptor agonists at various concentrations followed by incubation in the presence or absence (control) of HIV. Luciferase activity quantifies HIV replication.
This inhibition of HIV infection occurs at doses within the range of concentrations of CB-184 and haldol that produce reductions in membrane sphingomyelin, as shown above in FIG. 1. In these experiments, lymphocytes transfected with a luciferease gene driven by the Simian Immunodeficiency virus (SIV)LTR were incubated for 24 hours in the presence of the indicated dose of sigma-2 receptor agonist. The drugs were then removed, cells were washed and exposed to HIV for 24 hours. Cells were then lysed and luciferase activity quantified. Luciferase activity indicates the level of infectivity of the HIV virions. All of the compounds evaluated with sigma-2 agonist activity inhibited HIV infection at concentrations that were non-toxic to lymphocytes.

The text below walks through data of patent US20060004036A1, “Sigma-2 receptor agonists and their use in the treatment of HIV infection” (The United States of America, per Secy. DHHS, NIH, priority 2003, published 2006).

Consider `CN1CC[C@]2(c3cccc(O)c3)CC(=O)/C(=C/c3ccc(Cl)c(Cl)c3)[C@H]1C2` [CB-184, (+)-1R,5R-E-8-(3,4-dichlorobenzylidene)-5-(3-hydroxyphenyl)-2-methylmorphan-7-one], for which the “reduction of control levels of membrane sphingomyelin” value was “about 39%” in the experiment with H9 lymphocytes (0.3 μM) and roughly 45% with H9 lymphocytes (1 μM). The “inhibition of HIV infection (in words)” value with HIV was “dose-dependent inhibition”. On to `CN1CC[C@]2(c3cccc(O)c3)CC(=O)/C(=C/c3ccccc3)[C@H]1C2` [CB-64D], for which the “inhibition of HIV infection (in words)” value with HIV is listed as “dose-dependent inhibition”. On the same count and under the same terms, then `CN(CCc1ccc(Cl)c(Cl)c1)[C@H]1CCCC[C@H]1N1CCCC1` (relative stereo) [BD737, 1S,2R-(+)-cis-N-[2-(3,4-dichlorophenyl)ethyl]-N-methyl-2-(1-pyrrolidinyl)-cyclohexylamine], with “dose-dependent inhibition”; and `O=C(CCCN1CCC(O)(c2ccc(Cl)cc2)CC1)c1ccc(F)cc1` [haldol, haloperidol, reference compound], with “dose-dependent inhibition”. For `c1ccc(CCN2CCCCC2)cc1` [AC-927, N-phenethylpiperidine, reference compound], the “effect of the antagonist on the ability of CB-184 to inhibit HIV infection of lymphocytes (in words)” value with HIV (with CB-184 at various doses and different HIV viral titres (FIG. 3, 4, 5)) is on record as “reversed”.
